As a reminder, the Ki is a dissociation constant, usually derived from enzyme kinetics or from competition with a known ligand. Low values mean tighter binding, high ones weaker binding. By IC50 is commonly meant the concentration that inhibits the measured activity by half. Read a low IC50 as greater potency in that assay.

For six compounds, Ki and IC50 results are on record in ChEMBL document CHEMBL1131279, “Endothiopeptide inhibitors of HIV-1 protease” (Bioorg Med Chem Lett, 1998).

Starred links: 1 amine or outer side, 2 acyl side, 3 side chain; linkers in the order of their positions; H or OH if unused. Non-standard residues stand in square brackets, D forms with d. Residues, ends and D or L forms follow the SMILES beside them. *: point of attachment. X2 = O=C([C@H](Cc1ccccc1)NC(=S)[C@H](Cc1ccccc1)N[*:1])[*:2]; X3 = O=C([C@H](Cc1ccccc1)CC(O)[C@H](Cc1ccccc1)N[*:1])[*:2]; X4 = CC(C)[C@H](/N=C(\S)[C@H](Cc1ccccc1)N[*:1])C(=O)[*:2]; AlaΨ(CSNH)Ala = C[C@H](NC(=S)[C@H](C)N[*:1])C(=O)[*:2]; X5 = C[C@H](N[*:1])C(=S)N[C@@H](Cc1ccccc1)C(=O)[*:2]; X1 = COC(=O)[C@@H](NC(=S)[C@@H](N*)C(C)C)C(C)C; Cbz = O=C(OCc1ccccc1)*; Boc = CC(C)(C)OC(=O)*

Assay [1] has as its target T1, Human immunodeficiency virus type 1 protease (Human immunodeficiency virus 1, UniProt Q72874). Briefly: Binding affinity was evaluated for competitive inhibition of HIV-1 Protease.
In assay [2] the target is T1, Human immunodeficiency virus type 1 protease. Description: Inhibitory activity against HIV-1 Protease was determined.

As for `COC(=O)[C@@H](NC(=S)[C@@H](NC(=O)[C@H](Cc1ccccc1)NC(=O)[C@H](Cc1ccccc1)NC(=O)[C@H](C)NC(=O)[C@H](C)NC(=O)OC(C)(C)C)C(C)C)C(C)C` (Boc-AAFF-X1), the Ki in assay [1] is 3.4 µM. Besides, half-maximal inhibition in assay [2] (IC50) was put at 4.5 µM.
In assay [2], `COC(=O)[C@@H](NC(=O)[C@@H](/N=C(\S)[C@H](Cc1ccccc1)NC(=O)[C@H](Cc1ccccc1)NC(=O)[C@H](C)NC(=O)[C@H](C)NC(=O)OC(C)(C)C)C(C)C)C(C)C` (Boc-AAF[X4]V-OMe) yielded a half-maximal inhibitory concentration (IC50) of more than 200 µM.
For the compound `COC(=O)[C@@H](NC(=O)[C@@H](NC(=O)[C@H](Cc1ccccc1)NC(=S)[C@H](Cc1ccccc1)NC(=O)[C@H](C)NC(=O)[C@H](C)NC(=O)OC(C)(C)C)C(C)C)C(C)C` (Boc-AA[X2]VV-OMe), the half-inhibitory concentration (IC50) in assay [2] came to 18 µM.
Regarding `COC(=O)[C@@H](NC(=O)[C@@H](NC(=O)[C@H](Cc1ccccc1)NC(=O)[C@H](Cc1ccccc1)NC(=S)[C@H](C)NC(=O)[C@H](C)NC(=O)OC(C)(C)C)C(C)C)C(C)C` (Boc-A[X5]FVV-OMe), the half-inhibitory concentration (IC50) in assay [2] was determined as 51 µM.
On the same count and under the same terms, with `COC(=O)[C@@H](NC(=O)[C@@H](NC(=O)[C@H](Cc1ccccc1)NC(=O)[C@H](Cc1ccccc1)NC(=O)[C@H](C)/N=C(\S)[C@H](C)NC(=O)OC(C)(C)C)C(C)C)C(C)C` (Boc-[AlaΨ(CSNH)Ala]FFVV-OMe) the figure was 160 µM.
For `COC(=O)[C@@H](NC(=O)[C@@H](NC(=O)[C@H](Cc1ccccc1)CC(O)[C@H](Cc1ccccc1)NC(=O)[C@H](C)NC(=O)[C@H](C)NC(=O)OCc1ccccc1)C(C)C)C(C)C` (some centres not stated) (Cbz-AA[X3]VV-OMe), the affinity in assay [2] corresponds to a Ki of 0.0004 µM.
